Assay [1] in a line: Antiproliferative activity against human PC-9-TM cells harboring EGFR exon 19 deletion/T790M/[…] mutant assessed as inhibition of cell proliferation incubated for 72 hrs by CCK8 assay. Format: functional, cell-based.
Assay [2] relates to A549. The experiment in a line: Antiproliferative activity against human A549 cells harboring wildtype EGFR assessed as inhibition of cell proliferation incubated for 72 hrs by CCK8 assay. The format is functional, cell-based. Particulars: A549, 72 h. On the technique in general: Tetrazolium dyes change colour on reduction, which living cells bring about.
For assay [3], the system named is NCI-H1975. Briefly: Antiproliferative activity against human NCI-H1975 cells harboring EGFR L858R/T790M mutant assessed as inhibition of cell proliferation incubated for 72 hrs by CCK8 assay. The format is functional, cell-based. Particulars: NCI-H1975, 72 h.
A short description of assay [4]: Antiproliferative activity against human HI975-TM cells harboring EGFR L858R/T790M/C797S mutant assessed as inhibition of cell growth incubated for 72 hrs by CCK-8 assay. The format is functional, cell-based. Particulars: H1975-TM.
Assay [5] deals with PC-9. Briefly: Antiproliferative activity against human PC-9 cells harboring EGFR exon 19 deletion mutant assessed as inhibition of cell proliferation incubated for 72 hrs by CCK8 assay. Particulars: PC-9, 72 h. Format: functional, cell-based.
In assay [6] the target is Protein cereblon/Epidermal growth factor receptor (Homo sapiens, UniProt P00533+Q96SW2, T790M/C797S/L858R). Briefly: PROTAC activity at CRBN/EGFR L858R/T790M/C797S mutant in human H1975-TM cells assessed as induction of EGFR degradation incubated for 24 hrs by Western blot analysis. Format: cell-based. Background: A western blot detects proteins with antibodies after separation by electrophoresis.

In assay [7] the test system is Protein cereblon/Epidermal growth factor receptor (Homo sapiens), P00533+Q96SW2 [L858R,T790M,C797S]. Briefly: PROTAC activity at CRBN/EGFR L858R/T790M/C797S mutant in human H1975-TM cells assessed as induction of EGFR degradation by measuring maximal efficacy at 300 nM incubated for 24 hrs by Western blot analysis relative to control. The format is cell-based.
For assay [8] the test system is unchanged. Briefly: Induction of EGFR L858R/T790M/C797S mutant in human H1975-TM cells assessed as remaining activity at 1 uM incubated for 6 hrs by Western blot analysis (reference value: 100%). Format: cell-based.
For assay [9] the test system is unchanged. The experiment in a line: PROTAC activity at CRBN/EGFR L858R/T790M/C797S mutant in human H1975-TM cells assessed as induction of EGFR degradation by measuring remaining activity at 100 nM incubated for 24 hrs by Western blot analysis (reference value: 100%). Format: cell-based.
For assay [10], the target named is Epidermal growth factor receptor (Homo sapiens, UniProt P00533, C797S/L858R/T790M). The experiment in a line: Binding affinity to EGFR L858R/T790M/C797S mutant (unknown origin) assessed as dissociation constant incubated for 10 mins under dark condition by MST analysis.
Assay [11] addresses von Hippel-Lindau disease tumor suppressor/Epidermal growth factor receptor (Homo sapiens, UniProt P00533+P40337, L858R). Briefly: PROTAC activity at VHL/EGFR L858R mutant in human NCI-H3255 cells assessed as induction of EGFR degradation incubated for 24 hrs by immunoblotting analysis. Format: cell-based.
Assay [12] has as its target Protein cereblon/Epidermal growth factor receptor (Homo sapiens, UniProt P00533+Q96SW2, T790M/L858R). The experiment in a line: PROTAC activity at CRBN/EGFR L858R/T790M double mutant in human NCI-H1975 cells assessed as induction of EGFR degradation. Format: cell-based.

Here are results for 24 molecules from ChEMBL document CHEMBL5543167, “Design, Synthesis, and Biological Evaluation of Novel EGFR PROTACs Targeting C797S Mutation” (J Med Chem, 2024).

A word on the IC50: it is the midpoint of a concentration-inhibition curve. What is called DC50 is the concentration at which degradation of the target reaches its halfway point. For orientation: Kd means the equilibrium constant for the complex coming apart.

Chain of Protein cereblon/Epidermal growth factor receptor (Homo sapiens, UniProt P00533+Q96SW2, T790M/C797S/L858R) (P00533 25-1210 T790M/C797S/L858R limits assumed, stated change not applied): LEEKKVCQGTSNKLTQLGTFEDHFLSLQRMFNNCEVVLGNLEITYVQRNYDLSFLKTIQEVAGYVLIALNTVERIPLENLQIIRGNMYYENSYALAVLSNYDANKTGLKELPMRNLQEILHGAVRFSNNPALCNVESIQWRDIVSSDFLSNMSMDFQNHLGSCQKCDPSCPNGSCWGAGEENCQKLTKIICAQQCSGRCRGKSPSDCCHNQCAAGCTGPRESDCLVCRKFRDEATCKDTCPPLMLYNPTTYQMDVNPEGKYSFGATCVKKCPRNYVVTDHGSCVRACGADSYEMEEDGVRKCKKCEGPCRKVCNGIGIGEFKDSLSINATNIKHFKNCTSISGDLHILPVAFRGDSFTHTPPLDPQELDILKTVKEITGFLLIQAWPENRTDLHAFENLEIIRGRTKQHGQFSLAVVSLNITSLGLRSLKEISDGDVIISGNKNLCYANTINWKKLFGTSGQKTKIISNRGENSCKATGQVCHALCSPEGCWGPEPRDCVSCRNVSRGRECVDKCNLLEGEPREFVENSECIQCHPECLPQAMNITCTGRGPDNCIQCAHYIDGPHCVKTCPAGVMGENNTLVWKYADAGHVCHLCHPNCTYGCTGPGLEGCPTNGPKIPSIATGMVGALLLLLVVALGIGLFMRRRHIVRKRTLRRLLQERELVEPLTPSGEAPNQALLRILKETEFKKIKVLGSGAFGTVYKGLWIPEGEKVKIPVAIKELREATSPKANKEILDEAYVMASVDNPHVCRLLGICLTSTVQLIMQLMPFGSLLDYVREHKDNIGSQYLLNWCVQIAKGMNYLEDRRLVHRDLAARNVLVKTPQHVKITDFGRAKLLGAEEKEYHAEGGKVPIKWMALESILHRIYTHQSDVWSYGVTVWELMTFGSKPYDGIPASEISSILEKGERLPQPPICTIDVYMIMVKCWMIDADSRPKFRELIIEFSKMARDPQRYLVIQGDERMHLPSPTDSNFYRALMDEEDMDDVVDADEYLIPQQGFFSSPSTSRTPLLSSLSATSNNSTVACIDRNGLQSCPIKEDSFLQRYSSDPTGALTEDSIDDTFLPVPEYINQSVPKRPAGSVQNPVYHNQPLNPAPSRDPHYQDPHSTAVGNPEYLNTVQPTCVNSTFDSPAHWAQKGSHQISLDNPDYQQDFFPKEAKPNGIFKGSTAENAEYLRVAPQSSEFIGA
Chain of Protein cereblon/Epidermal growth factor receptor (Homo sapiens, UniProt P00533+Q96SW2, T790M/C797S/L858R) (Q96SW2 whole entry, stated change not applied): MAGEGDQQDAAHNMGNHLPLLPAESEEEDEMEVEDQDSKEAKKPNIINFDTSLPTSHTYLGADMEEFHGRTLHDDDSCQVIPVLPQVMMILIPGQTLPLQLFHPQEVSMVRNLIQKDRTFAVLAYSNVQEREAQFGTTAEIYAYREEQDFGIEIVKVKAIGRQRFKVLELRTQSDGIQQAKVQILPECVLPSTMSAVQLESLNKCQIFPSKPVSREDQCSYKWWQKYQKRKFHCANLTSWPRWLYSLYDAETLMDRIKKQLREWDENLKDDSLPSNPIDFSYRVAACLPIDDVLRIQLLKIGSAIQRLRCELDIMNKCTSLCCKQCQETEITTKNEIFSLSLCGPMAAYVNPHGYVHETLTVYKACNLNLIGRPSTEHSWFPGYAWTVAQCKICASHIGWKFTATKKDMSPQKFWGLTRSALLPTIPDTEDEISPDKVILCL
Chain of Protein cereblon/Epidermal growth factor receptor (Homo sapiens, UniProt P00533+Q96SW2, T790M/L858R) (P00533 25-1210 T790M/L858R limits assumed, stated change not applied): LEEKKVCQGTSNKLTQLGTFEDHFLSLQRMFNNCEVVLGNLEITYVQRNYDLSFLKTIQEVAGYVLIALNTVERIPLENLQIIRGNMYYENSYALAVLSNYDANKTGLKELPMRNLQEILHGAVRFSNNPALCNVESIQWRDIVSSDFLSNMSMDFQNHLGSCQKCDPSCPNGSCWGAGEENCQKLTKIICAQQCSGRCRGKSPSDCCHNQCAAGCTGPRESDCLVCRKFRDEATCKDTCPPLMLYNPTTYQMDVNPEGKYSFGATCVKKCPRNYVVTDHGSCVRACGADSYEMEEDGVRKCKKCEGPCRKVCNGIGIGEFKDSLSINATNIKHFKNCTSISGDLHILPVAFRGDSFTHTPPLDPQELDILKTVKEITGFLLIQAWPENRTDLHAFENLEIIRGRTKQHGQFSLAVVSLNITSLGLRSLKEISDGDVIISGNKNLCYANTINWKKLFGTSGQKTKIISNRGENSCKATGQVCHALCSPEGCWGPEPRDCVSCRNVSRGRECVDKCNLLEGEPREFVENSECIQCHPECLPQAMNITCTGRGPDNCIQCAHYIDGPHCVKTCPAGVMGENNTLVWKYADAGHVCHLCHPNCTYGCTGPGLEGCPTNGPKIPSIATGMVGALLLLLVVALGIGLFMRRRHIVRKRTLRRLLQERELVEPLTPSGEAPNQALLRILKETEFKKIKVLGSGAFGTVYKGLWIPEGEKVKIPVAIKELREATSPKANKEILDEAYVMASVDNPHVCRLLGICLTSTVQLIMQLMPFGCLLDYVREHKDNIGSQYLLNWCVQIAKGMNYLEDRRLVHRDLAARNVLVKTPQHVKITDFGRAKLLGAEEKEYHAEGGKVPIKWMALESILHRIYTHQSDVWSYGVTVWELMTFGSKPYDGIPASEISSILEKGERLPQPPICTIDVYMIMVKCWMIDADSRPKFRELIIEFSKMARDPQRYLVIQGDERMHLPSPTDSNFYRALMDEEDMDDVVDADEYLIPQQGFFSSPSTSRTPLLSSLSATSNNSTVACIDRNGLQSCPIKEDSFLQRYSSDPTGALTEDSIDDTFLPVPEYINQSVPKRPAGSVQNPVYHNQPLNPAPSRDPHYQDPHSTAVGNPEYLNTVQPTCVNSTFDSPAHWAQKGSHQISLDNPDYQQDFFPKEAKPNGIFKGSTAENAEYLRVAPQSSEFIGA
Chain of Protein cereblon/Epidermal growth factor receptor (Homo sapiens, UniProt P00533+Q96SW2, T790M/L858R) (Q96SW2 whole entry, stated change not applied): as the sequence (Q96SW2 whole entry, stated change not applied) above
Chain of Epidermal growth factor receptor (P00533 25-1210 T790M/C797S/L858R limits assumed): as the sequence (P00533 25-1210 T790M/C797S/L858R limits assumed, stated change not applied) above

`COc1cc(N2CCC(N3CCN(C)CC3)CC2)ccc1Nc1ncc(Cl)c(Nc2ccccc2P(C)(C)=O)n1` [BRIGATINIB]: the half-inhibitory concentration (IC50) in assay [1] is 0.404 µM; in [2], 0.911 µM; in assay [3], 0.444 µM; in assay [4], 0.562 µM; in [5], 0.11 µM.

With `CCS(=O)(=O)n1cc(-c2nc(Nc3ccc(N4CCN(CCCCCCCCC(=O)Nc5cccc6c5CN(C5CCC(=O)NC5=O)C6=O)CC4)cc3)ncc2C(F)(F)F)c2ccccc21` (stereo not drawn), the IC50 in [4] was determined as 0.0454 µM. Also, the 50% degradation concentration (DC50) in assay [6] was 0.0332 µM. Also, the Emax in assay [7] was above 95%.

For the molecule `CC(C)C[C@@H](C=O)NC(=O)[C@H](CC(C)C)NC(=O)[C@H](CC(C)C)NC(=O)OCc1ccccc1`, in assay [8], the Activity was found to be 80.3%.

As for `CCS(=O)(=O)n1cc(-c2nc(Nc3ccc(N4CCN(CCCCCCC(=O)Nc5cccc6c5CN(C5CCC(=O)N(C)C5=O)C6=O)CC4)cc3)ncc2C(F)(F)F)c2ccccc21` (stereo not drawn), the Activity in assay [9] was determined as 97.7%.

For the molecule `CCS(=O)(=O)n1cc(-c2nc(Nc3ccc4c(ccn4CCN(C)C)c3)ncc2C(F)(F)F)c2ccccc21`, the IC50 in [4] came to 0.0163 µM.

As for `CCS(=O)(=O)n1cc(-c2nc(Nc3ccc(N4CCN(C(=O)CCC(=O)Nc5cccc6c5CN(C5CCC(=O)NC5=O)C6=O)CC4)cc3)ncc2C(F)(F)F)c2ccccc21` (stereo not drawn), in [4], the IC50 was 0.419 µM. In addition, the DC50 in assay [6] turned out to be 0.18 µM. The Emax in [7] was found to be 88.4%.

Regarding `CCS(=O)(=O)n1cc(-c2nc(Nc3ccc(N4CCN(CCC(=O)Nc5cccc6c5CN(C5CCC(=O)NC5=O)C6=O)CC4)cc3)ncc2C(F)(F)F)c2ccccc21` (stereo not drawn), the half-inhibitory concentration (IC50) in assay [4] was 0.0599 µM. In assay [6], the 50% degradation concentration (DC50) is 0.0261 µM. In addition, the Emax in assay [7] was determined as 94.7%.

For `CCS(=O)(=O)n1cc(-c2nc(Nc3ccc(N4CCN(CCCCCCCCCCC(=O)Nc5cccc6c5CN(C5CCC(=O)NC5=O)C6=O)CC4)cc3)ncc2C(F)(F)F)c2ccccc21` (stereo not drawn), in assay [4], the IC50 came to 0.161 µM. The DC50 in [6] was determined as 0.281 µM. For the same molecule, the Emax in assay [7] worked out at 77.3%.

Consider `CCS(=O)(=O)n1cc(-c2nc(Nc3ccc(N4CCN(CCCC(=O)Nc5cccc6c5CN(C5CCC(=O)NC5=O)C6=O)CC4)cc3)ncc2C(F)(F)F)c2ccccc21` (stereo not drawn), for which the half-maximal inhibitory concentration (IC50) in assay [4] came to 0.0627 µM. The half-maximal degradation concentration (DC50) in assay [6] amounted to 0.0497 µM. Moreover, the Emax in assay [7] is above 95%.

`CCS(=O)(=O)n1cc(-c2nc(Nc3ccc(N4CCN(C(=O)CCCCCC(=O)Nc5cccc6c5CN(C5CCC(=O)NC5=O)C6=O)CC4)cc3)ncc2C(F)(F)F)c2ccccc21` (stereo not drawn): in assay [4], the concentration for half-maximal inhibition (IC50) turned out to be 0.197 µM. Further, in assay [6], the half-maximal degradation concentration (DC50) is 0.162 µM. In addition, the Emax in assay [7] was determined as 80.1%.

For `CCS(=O)(=O)n1cc(-c2nc(Nc3ccc(N4CCN(C(=O)CCCC(=O)Nc5cccc6c5CN(C5CCC(=O)NC5=O)C6=O)CC4)cc3)ncc2C(F)(F)F)c2ccccc21` (stereo not drawn), the IC50 in [4] turned out to be 0.198 µM. Further, in assay [6], the half-maximal degradation concentration (DC50) amounted to 0.153 µM. In addition, the Emax in assay [7] turned out to be 80.4%.

For the molecule `CCS(=O)(=O)n1cc(-c2nc(Nc3ccc(N4CCNCC4)cc3)ncc2C(F)(F)F)c2ccccc21`, the dissociation constant (Kd) in assay [10] was 0.0479 µM. For the same molecule, the Activity in assay [9] amounted to 106%.

In the case of `CCS(=O)(=O)n1cc(-c2nc(Nc3ccc(N4CCN(C(=O)CCCCCCC(=O)Nc5cccc6c5CN(C5CCC(=O)NC5=O)C6=O)CC4)cc3)ncc2C(F)(F)F)c2ccccc21` (stereo not drawn), the IC50 in assay [4] stood at 0.278 µM. Also, the DC50 in assay [6] was 0.159 µM. The Emax in assay [7] is 85.9%.

Turning to `C=CC(=O)Nc1cc(Nc2nccc(-c3cn(C)c4ccccc34)n2)c(OC)cc1N(C)CCN(C)C` [OSIMERTINIB], in [4], the IC50 worked out at 2.24 µM.

As for `CCS(=O)(=O)n1cc(-c2nc(Nc3ccc(N4CCN(C(=O)CCCCC(=O)Nc5cccc6c5CN(C5CCC(=O)NC5=O)C6=O)CC4)cc3)ncc2C(F)(F)F)c2ccccc21` (stereo not drawn), the IC50 in assay [4] came out at 0.188 µM. Also, in assay [6], the DC50 is above 0.3 µM. Moreover, the Emax in [7] stood at 48.3%.

In the case of `CCS(=O)(=O)n1cc(-c2nc(Nc3ccc(N4CCN(CCCCCCCCCC(=O)Nc5cccc6c5CN(C5CCC(=O)NC5=O)C6=O)CC4)cc3)ncc2C(F)(F)F)c2ccccc21` (stereo not drawn), the half-inhibitory concentration (IC50) in assay [4] came to 0.0486 µM. In addition, the half-maximal degradation concentration (DC50) in [6] was 0.0687 µM. In assay [7], the Emax amounted to 80.6%.

Regarding `CCS(=O)(=O)n1cc(-c2nc(Nc3ccc(N4CCN(CCCCCCCC(=O)Nc5cccc6c5CN(C5CCC(=O)NC5=O)C6=O)CC4)cc3)ncc2C(F)(F)F)c2ccccc21` (stereo not drawn), the IC50 in assay [4] came out at 0.0342 µM. Moreover, the DC50 in assay [6] came out at 0.017 µM. The Emax in [7] was above 95%.

Take `CCS(=O)(=O)n1cc(-c2nc(Nc3ccc(N4CCN(CCOCCOCC(=O)Nc5cccc6c5CN(C5CCC(=O)NC5=O)C6=O)CC4)cc3)ncc2C(F)(F)F)c2ccccc21` (stereo not drawn): in [4], the IC50 amounted to 0.0347 µM. The half-maximal degradation concentration (DC50) in [6] was determined as 0.0253 µM. Also, the Emax in [7] is above 95%.

For `CCS(=O)(=O)n1cc(-c2nc(Nc3ccc(N4CCN(CCCCC(=O)Nc5cccc6c5CN(C5CCC(=O)NC5=O)C6=O)CC4)cc3)ncc2C(F)(F)F)c2ccccc21` (stereo not drawn), the DC50 in assay [6] stood at 0.0825 µM.

Consider `CCS(=O)(=O)n1cc(-c2nc(Nc3ccc(N4CCN(CC(=O)Nc5cccc6c5CN(C5CCC(=O)NC5=O)C6=O)CC4)cc3)ncc2C(F)(F)F)c2ccccc21` (stereo not drawn), for which the concentration for half-maximal inhibition (IC50) in assay [4] is 0.0887 µM. For the same molecule, in assay [6], the DC50 was 0.0301 µM. The Emax in assay [7] is 89.3%.

Turning to `COc1cc2ncnc(Nc3ccc(F)c(Cl)c3)c2cc1OCCCCCOCCOCCC(=O)N[C@H](C(=O)N1C[C@H](O)C[C@H]1C(=O)NCc1ccc(-c2scnc2C)cc1)C(C)(C)C`, in [11], the half-maximal degradation concentration (DC50) is 0.039 µM.

On to `O=C1CCC(N2C(=O)c3cccc(NCCOCCOCCOCCN4CCN(c5ccc(-c6ccc7c(c6)C(=O)N(C(C(=O)Nc6nccs6)c6ccccc6)C7)cn5)CC4)c3C2=O)C(=O)N1` (stereo not drawn), for which the half-maximal degradation concentration (DC50) in [12] turned out to be 0.0059 µM.

For the molecule `CCS(=O)(=O)n1cc(-c2nc(Nc3ccc(N4CCN(CCCCCC(=O)Nc5cccc6c5CN(C5CCC(=O)NC5=O)C6=O)CC4)cc3)ncc2C(F)(F)F)c2ccccc21` (stereo not drawn), the IC50 in [4] stood at 0.0629 µM. Besides, the 50% degradation concentration (DC50) in assay [6] is 0.0594 µM. Further, in [7], the Emax was 94.6%.

Turning to `CCS(=O)(=O)N1C=C(c2nc(Nc3ccc(N4CCN(CCCCC(=O)Nc5cccc6c5CN(C5CCC(=O)NC5=O)C6=O)CC4)cc3)ncc2C(F)(F)F)C2CC=CC=C21` (stereo not drawn), the IC50 in [4] is 0.0935 µM. Also, in assay [7], the Emax is above 95%.
